Measurements as given in PubChem BioAssay (NCI).
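Results reflect a 48-hour exposure of cells in 96-well plates to compound at five concentrations. Definition used: TGI = concentration required for complete inhibition of growth.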

How the values were obtained:
Experiment in all cases: NCI tumour cell line growth inhibition, 48 h
A549 NSCLC = system: A549 NSCLC
CAKI-1 renal = system: CAKI-1 renal
CCRF-CEM leukemia = system: CCRF-CEM leukemia
COLO 205 colon = system: COLO 205 colon
DLD-1 colon = system: DLD-1 colon
DMS 114 small cell lung = system: DMS 114 small cell lung
DMS 273 small cell lung = system: DMS 273 small cell lung
EKVX NSCLC = system: EKVX NSCLC
HCC-2998 colon = system: HCC-2998 colon
HCT-116 colon = system: HCT-116 colon
HCT-15 colon = system: HCT-15 colon
HL-60(TB) leukemia = system: HL-60(TB) leukemia
HOP-18 NSCLC = system: HOP-18 NSCLC
HOP-62 NSCLC = system: HOP-62 NSCLC
HOP-92 NSCLC = system: HOP-92 NSCLC
HT29 colon = system: HT29 colon
IGROV1 ovarian = system: IGROV1 ovarian
K-562 leukemia = system: K-562 leukemia
KM12 colon = system: KM12 colon
KM20L2 colon = system: KM20L2 colon
LOX IMVI melanoma = system: LOX IMVI melanoma
M19-MEL melanoma = system: M19-MEL melanoma
MALME-3M melanoma = system: MALME-3M melanoma
MCF7 breast = system: MCF7 breast
MOLT-4 leukemia = system: MOLT-4 leukemia
NCI-H226 lung = system: NCI-H226 lung
NCI-H23 lung = system: NCI-H23 lung
NCI-H460 lung = system: NCI-H460 lung
NCI-H522 lung = system: NCI-H522 lung
NCI/ADR-RES ovarian = system: NCI/ADR-RES ovarian
OVCAR-3 ovarian = system: OVCAR-3 ovarian
OVCAR-4 ovarian = system: OVCAR-4 ovarian
OVCAR-5 ovarian = system: OVCAR-5 ovarian
OVCAR-8 ovarian = system: OVCAR-8 ovarian
P388 leukemia = system: P388 leukemia
P388/ADR leukemia = system: P388/ADR leukemia
RPMI-8226 leukemia = system: RPMI-8226 leukemia
RXF 393 renal = system: RXF 393 renal
SF-268 CNS = system: SF-268 CNS
SF-295 CNS = system: SF-295 CNS
SF-539 CNS = system: SF-539 CNS
SK-MEL-2 melanoma = system: SK-MEL-2 melanoma
SK-MEL-28 melanoma = system: SK-MEL-28 melanoma
SK-MEL-5 melanoma = system: SK-MEL-5 melanoma
SK-OV-3 ovarian = system: SK-OV-3 ovarian
SN12C renal = system: SN12C renal
SN12K1 renal = system: SN12K1 renal
SNB-19 CNS = system: SNB-19 CNS
SNB-75 CNS = system: SNB-75 CNS
SNB-78 CNS = system: SNB-78 CNS
SW-620 colon = system: SW-620 colon
U251 CNS = system: U251 CNS
UACC-257 melanoma = system: UACC-257 melanoma
UACC-62 melanoma = system: UACC-62 melanoma
UO-31 renal = system: UO-31 renal

With Nc1nc2c(c(=O)[nH]1)N(C=O)C(CNc1ccc(C(=O)N[C@@H](CCC(=O)O)C(=O)O)cc1)CN2 (stereo not given in full) the TGI (A549 NSCLC) was > 125 µM, the TGI (CAKI-1 renal) was > 125 µM and the TGI (CCRF-CEM leukemia) was > 31.4 µM. For the same molecule, the TGI (COLO 205 colon) was > 125 µM, the TGI (DLD-1 colon) was > 125 µM and the TGI (DMS 114 small cell lung) was > 125 µM. The TGI (DMS 273 small cell lung) was > 125 µM, the TGI (EKVX NSCLC) was > 125 µM and the TGI (HCC-2998 colon) was > 125 µM. For the same molecule, the TGI (HCT-116 colon) was > 125 µM, the TGI (HCT-15 colon) was > 125 µM and the TGI (HL-60(TB) leukemia) was > 31.4 µM. The TGI (HOP-18 NSCLC) was > 125 µM, the TGI (HOP-62 NSCLC) was > 125 µM and the TGI (HOP-92 NSCLC) was > 125 µM. The TGI (HT29 colon) was > 125 µM, the TGI (IGROV1 ovarian) was > 125 µM and the TGI (K-562 leukemia) was > 31.4 µM. For the same molecule, the TGI (KM12 colon) was > 125 µM, the TGI (KM20L2 colon) was > 125 µM and the TGI (LOX IMVI melanoma) was > 125 µM. For the same molecule, the TGI (M19-MEL melanoma) was > 125 µM, the TGI (MALME-3M melanoma) was > 125 µM and the TGI (MCF7 breast) was > 125 µM. The TGI (MOLT-4 leukemia) was > 125 µM, the TGI (NCI-H226 lung) was > 125 µM and the TGI (NCI-H23 lung) was > 125 µM. The TGI (NCI-H460 lung) was > 125 µM, the TGI (NCI-H522 lung) was > 125 µM and the TGI (NCI/ADR-RES ovarian) was > 125 µM. The TGI (OVCAR-3 ovarian) was > 125 µM, the TGI (OVCAR-4 ovarian) was > 125 µM and the TGI (OVCAR-5 ovarian) was > 125 µM. For the same molecule, the TGI (OVCAR-8 ovarian) was > 125 µM, the TGI (P388 leukemia) was > 125 µM and the TGI (P388/ADR leukemia) was > 125 µM. The TGI (RPMI-8226 leukemia) was > 125 µM, the TGI (RXF 393 renal) was > 125 µM and the TGI (SF-268 CNS) was > 125 µM. For the same molecule, the TGI (SF-295 CNS) was > 125 µM, the TGI (SF-539 CNS) was > 125 µM and the TGI (SK-MEL-2 melanoma) was 49.1 µM. The TGI (SK-MEL-28 melanoma) was > 125 µM, the TGI (SK-MEL-5 melanoma) was > 125 µM and the TGI (SK-OV-3 ovarian) was > 125 µM. The TGI (SN12C renal) was > 125 µM, the TGI (SN12K1 renal) was > 125 µM and the TGI (SNB-19 CNS) was > 125 µM. For the same molecule, the TGI (SNB-75 CNS) was > 125 µM, the TGI (SNB-78 CNS) was > 125 µM and the TGI (SW-620 colon) was > 125 µM. For the same molecule, the TGI (U251 CNS) was > 125 µM, the TGI (UACC-257 melanoma) was > 125 µM and the TGI (UACC-62 melanoma) was > 125 µM. For the same molecule, the TGI (UO-31 renal) was > 125 µM.
